PubChem BioAssay (NCI)
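Cultured in 96-well plates, cells were exposed to test compound for 48 hours across five concentrations. GI50 is the concentration that inhibits growth by half. TGI marks complete inhibition of growth.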

Assays:
Assay in all cases: NCI anticancer screen, dose series, 48 h
UACC-257 melanoma = test system: UACC-257 melanoma
OVCAR-8 ovarian = test system: OVCAR-8 ovarian
KM12 colon = test system: KM12 colon
HS 578T breast = test system: HS 578T breast
NCI-H460 lung = test system: NCI-H460 lung
U251 CNS = test system: U251 CNS
OVCAR-3 ovarian = test system: OVCAR-3 ovarian
HCC-2998 colon = test system: HCC-2998 colon
SF-539 CNS = test system: SF-539 CNS
RXF 393 renal = test system: RXF 393 renal
LOX IMVI melanoma = test system: LOX IMVI melanoma
SK-MEL-28 melanoma = test system: SK-MEL-28 melanoma
HT29 colon = test system: HT29 colon
M14 melanoma = test system: M14 melanoma
HOP-92 NSCLC = test system: HOP-92 NSCLC
OVCAR-5 ovarian = test system: OVCAR-5 ovarian
CCRF-CEM leukemia = test system: CCRF-CEM leukemia
SNB-75 CNS = test system: SNB-75 CNS
UACC-62 melanoma = test system: UACC-62 melanoma
NCI-H23 lung = test system: NCI-H23 lung
SF-295 CNS = test system: SF-295 CNS
786-0 renal = test system: 786-0 renal
SNB-19 CNS = test system: SNB-19 CNS
OVCAR-4 ovarian = test system: OVCAR-4 ovarian
PC-3 prostate = test system: PC-3 prostate
SK-MEL-2 melanoma = test system: SK-MEL-2 melanoma
HCT-116 colon = test system: HCT-116 colon
SK-OV-3 ovarian = test system: SK-OV-3 ovarian
IGROV1 ovarian = test system: IGROV1 ovarian
ACHN renal = test system: ACHN renal
DU-145 prostate = test system: DU-145 prostate
T-47D breast = test system: T-47D breast
HOP-62 NSCLC = test system: HOP-62 NSCLC
HCT-15 colon = test system: HCT-15 colon
MCF7 breast = test system: MCF7 breast
NCI-H522 lung = test system: NCI-H522 lung
BT-549 breast = test system: BT-549 breast
MDA-MB-231 breast = test system: MDA-MB-231 breast
A549 NSCLC = test system: A549 NSCLC
COLO 205 colon = test system: COLO 205 colon
NCI-H226 lung = test system: NCI-H226 lung
HL-60(TB) leukemia = test system: HL-60(TB) leukemia
CAKI-1 renal = test system: CAKI-1 renal
RPMI-8226 leukemia = test system: RPMI-8226 leukemia
SN12C renal = test system: SN12C renal
MDA-MB-435 = test system: MDA-MB-435
MOLT-4 leukemia = test system: MOLT-4 leukemia
K-562 leukemia = test system: K-562 leukemia
SF-268 CNS = test system: SF-268 CNS
SR leukemia = test system: SR leukemia
UO-31 renal = test system: UO-31 renal
MALME-3M melanoma = test system: MALME-3M melanoma
EKVX NSCLC = test system: EKVX NSCLC
NCI/ADR-RES ovarian = test system: NCI/ADR-RES ovarian
SW-620 colon = test system: SW-620 colon
SK-MEL-5 melanoma = test system: SK-MEL-5 melanoma
TK-10 renal = test system: TK-10 renal

SMILES: CC(C)=CCc1c2c(c(O)c3c1O[C@]14C(=C[C@@H]5C[C@H]1C(C)(C)O[C@@]4(C/C=C(/C)C(=O)O)C5=O)C3=O)C=CC(C)(C)O2
- GI50 (UACC-257 melanoma): 12.7 µM
- TGI (UACC-257 melanoma): 28 µM
- GI50 (OVCAR-8 ovarian): 12.7 µM
- TGI (OVCAR-8 ovarian): 33.6 µM
- GI50 (KM12 colon): 16.7 µM
- TGI (KM12 colon): 33.5 µM
- GI50 (HS 578T breast): 17.3 µM
- TGI (HS 578T breast): 58.9 µM
- GI50 (NCI-H460 lung): 15.8 µM
- TGI (NCI-H460 lung): 32.1 µM
- GI50 (U251 CNS): 10.4 µM
- TGI (U251 CNS): 22.6 µM
- GI50 (OVCAR-3 ovarian): 10.2 µM
- TGI (OVCAR-3 ovarian): 22 µM
- GI50 (HCC-2998 colon): 18.5 µM
- TGI (HCC-2998 colon): 35.9 µM
- GI50 (SF-539 CNS): 16.5 µM
- TGI (SF-539 CNS): 35.1 µM
- GI50 (RXF 393 renal): 12.6 µM
- TGI (RXF 393 renal): 28.2 µM
- GI50 (LOX IMVI melanoma): 3.51 µM
- TGI (LOX IMVI melanoma): 14.4 µM
- GI50 (SK-MEL-28 melanoma): 15 µM
- TGI (SK-MEL-28 melanoma): 30.1 µM
- GI50 (HT29 colon): 12.9 µM
- TGI (HT29 colon): 32.6 µM
- GI50 (M14 melanoma): 12.8 µM
- TGI (M14 melanoma): 29.5 µM
- GI50 (HOP-92 NSCLC): 11.7 µM
- TGI (HOP-92 NSCLC): 26.7 µM
- GI50 (OVCAR-5 ovarian): 17.6 µM
- TGI (OVCAR-5 ovarian): 36.3 µM
- GI50 (CCRF-CEM leukemia): 0.987 µM
- TGI (CCRF-CEM leukemia): 23.4 µM
- GI50 (SNB-75 CNS): 13.9 µM
- TGI (SNB-75 CNS): 32.4 µM
- GI50 (UACC-62 melanoma): 15.3 µM
- TGI (UACC-62 melanoma): 32.2 µM
- GI50 (NCI-H23 lung): 19.6 µM
- TGI (NCI-H23 lung): 49.4 µM
- GI50 (SF-295 CNS): 17.7 µM
- TGI (SF-295 CNS): 36.5 µM
- GI50 (786-0 renal): 4.27 µM
- TGI (786-0 renal): 16.4 µM
- GI50 (SNB-19 CNS): 17.2 µM
- TGI (SNB-19 CNS): 33.6 µM
- GI50 (OVCAR-4 ovarian): 15.6 µM
- TGI (OVCAR-4 ovarian): 36.8 µM
- GI50 (PC-3 prostate): 14 µM
- TGI (PC-3 prostate): 31.1 µM
- GI50 (SK-MEL-2 melanoma): 18.1 µM
- TGI (SK-MEL-2 melanoma): 38.5 µM
- GI50 (HCT-116 colon): 11.4 µM
- TGI (HCT-116 colon): 24.2 µM
- GI50 (SK-OV-3 ovarian): 24.7 µM
- TGI (SK-OV-3 ovarian): 51.3 µM
- GI50 (IGROV1 ovarian): 4.64 µM
- TGI (IGROV1 ovarian): 17.7 µM
- GI50 (ACHN renal): 12.2 µM
- TGI (ACHN renal): 25.7 µM
- GI50 (DU-145 prostate): 15.6 µM
- TGI (DU-145 prostate): 29 µM
- GI50 (T-47D breast): 10 µM
- TGI (T-47D breast): 31.1 µM
- GI50 (HOP-62 NSCLC): 15.4 µM
- TGI (HOP-62 NSCLC): 31.5 µM
- GI50 (HCT-15 colon): 6.65 µM
- TGI (HCT-15 colon): 33.8 µM
- GI50 (MCF7 breast): 5.59 µM
- TGI (MCF7 breast): 42.4 µM
- GI50 (NCI-H522 lung): 16 µM
- TGI (NCI-H522 lung): 30.3 µM
- GI50 (BT-549 breast): 14.4 µM
- TGI (BT-549 breast): 29.1 µM
- GI50 (MDA-MB-231 breast): 13.2 µM
- TGI (MDA-MB-231 breast): 33.7 µM
- GI50 (A549 NSCLC): 20.9 µM
- TGI (A549 NSCLC): 45.6 µM
- GI50 (COLO 205 colon): 17 µM
- TGI (COLO 205 colon): 37.9 µM
- GI50 (NCI-H226 lung): 21.7 µM
- TGI (NCI-H226 lung): 50.2 µM
- GI50 (HL-60(TB) leukemia): 12 µM
- TGI (HL-60(TB) leukemia): 43.2 µM
- GI50 (CAKI-1 renal): 16.6 µM
- TGI (CAKI-1 renal): 32.1 µM
- GI50 (RPMI-8226 leukemia): 3.19 µM
- TGI (RPMI-8226 leukemia): 13.9 µM
- GI50 (SN12C renal): 17.5 µM
- TGI (SN12C renal): 46.3 µM
- GI50 (MDA-MB-435): 14.3 µM
- TGI (MDA-MB-435): 29.5 µM
- GI50 (MOLT-4 leukemia): 14.3 µM
- TGI (MOLT-4 leukemia): 63 µM
- GI50 (K-562 leukemia): 6.43 µM
- TGI (K-562 leukemia): > 100 µM
- GI50 (SF-268 CNS): 15.4 µM
- TGI (SF-268 CNS): 31.4 µM
- GI50 (SR leukemia): 3.13 µM
- TGI (SR leukemia): > 100 µM
- GI50 (UO-31 renal): 9.78 µM
- TGI (UO-31 renal): 23.1 µM
- GI50 (MALME-3M melanoma): 13.1 µM
- TGI (MALME-3M melanoma): 27.8 µM
- GI50 (EKVX NSCLC): 17.2 µM
- TGI (EKVX NSCLC): 41.4 µM
- GI50 (NCI/ADR-RES ovarian): 21.3 µM
- TGI (NCI/ADR-RES ovarian): 75.3 µM
- GI50 (SW-620 colon): 4.06 µM
- TGI (SW-620 colon): 17.4 µM
- GI50 (SK-MEL-5 melanoma): 16.4 µM
- TGI (SK-MEL-5 melanoma): 30.7 µM
- GI50 (TK-10 renal): 18 µM
- TGI (TK-10 renal): 32.3 µM
